Reference: US4616025A, “Thiazolidine derivatives, process for the preparation and pharmaceutical compositions thereof” (Richter Gedeon Vegyeszeti Gyar RT, priority 1983, dated 1986)
Entries after “also recorded” stand apart in the source; their conditions may differ.

Columns and labels:
[1] = tested on: gastric ulcers induced by indomethacin; test: Gastric ulcers induced by a 20 mg/kg oral dose of indomethacin; format: in vivo; conditions: 20 mg/kg oral dose of indomethacin
[2] = tested on: gastric necrosis induced by absolute alcohol; test: Gastric necrosis induced by absolute alcohol (cytoprotection); format: in vivo, rat (female H-Wistar)
Protocol: Gastric necrosis induced by absolute alcohol
Water was allowed ad libitum. The compounds to be tested were administered orally, 30 minutes prior to the administration of 0.5 ml of ethanol/100 g of body weight through a canula. Two hours later the animals were killed by overdosing ether. Stomachs were removed and opened along the major curvature. […] Degree of the cytoprotection was expressed in % related to the control.

[3] = tested on: indomethacin-induced intestinal ulceration; test: Indomethacin-induced fatal intestinal ulceration (15 mg/kg p.o.), inflation technique; format: in vivo, rat (female H-Wistar)
Protocol: Indomethacin-induced intestinal ulceration
Of the non-steroidal antiinflammatory agents indomethacin has not only a gastric-ulcer inducing side-effect but may also cause serious intestinal ulceration. Depending on the dose, the intestinal ulceration may be fatal, peritonitis due to intestinal perforations kills the animals.
(a) Indomethacin-induced fatal intestinal ulceration
Non-fasted, female H-Winstar rats, weighing 120-150 g each were treated orally with a 15 mg/kg dose of indomethacin (in Tween 80 suspension). […] Under these conditions it requires about 48 to 72 hours to detect intenstinal ulceration.
(§1) To evaluate the development of intestinal ulcers the so-called inflation technique by Ezer and Szporny (J. Pharm. Pharmacol. 27, 866 (1975)) was employed. By this method the progress of ulceration can be monitored quantitatively. The tensile strength of the intestinal wall expressed in mmHg weakens gradually parallel with the progress of ulceration.

gastric acid secretion = test: Gastric acid secretion in Shay-rats (pylorus ligation, 4 hours); format: in vivo, rat (female H-Wistar)
Protocol: The method was first described by Shay et al in 1945 (Gastroenterology 56, 5-13, 1945). Female H-Wistar rats (120-150 g) were gasted for 24 hours. Water was allowed ad libitum. The pylorus of the animals was ligated in slight ether narcosis. […] 4 hours after treatment the animals were killed by an overdose of ether. The stomach was excised and cut along the large curvature. The volume and the pH of the contents were determined, in certain cases the HCl production was determined by titration.

Toxicological studies = test: Toxicological studies
Protocol: For intravenous administration the compound was dissolved in dimethyl formamide.

[4] = tested on: indomethacin-induced non-fatal intestinal ulceration; test: Indomethacin-induced (7.5 mg/kg p.o.) non-fatal intestinal ulceration, post-treatment, inflation technique; format: in vivo, rat (H-Wistar)
Protocol: as §1
(b) Indomethacin-induced non-fatal ulceration
Non-fasted H-Wistar rats weighing 120 to 150 g each were administered 7.5 mg/kg indomethacin orally, to induce non-fatal intestinal ulceration. 4, 24 and 48 hours, respectively, after the indomethacin treatment the animals were treated with the test material orally. The animals were killed 24 hours after the last treatment and 72 hours after the ulcer-induction performed with indomethacin, respectively. Ulceration was evaluated by the inflation technique.

[5] = tested on: aspirin-induced gastric ulcers; test: Aspirin-induced stomach ulcer; format: in vivo, rat (female H-Wistar)
Protocol: It is known that the non-steroidal antiinflammatory agents induce gastointestinal ulceration to certain extent (Drugs and Peptic Ulcer, Ed. Pfeiffer, CRC Press, New York 1982). To test anti-ulcer compounds the so-called Aspirin-induced ulcer model is widely used. Female H-Wistar rats weighing 120-150 g each were fasted for 24 hours. Water was allowed ad libitum. The stomach ulcer was induced by oral administration of 100 mg/kg Aspirin (in Tween 80 suspension). The test drug was given simultaneously with the administration of Aspirin, orally. The animals were killed by an overdose of ether, 4 hours after treatment. The stomach was excised and cut along the large curvature. The contents were slightly washed and the haemorrhagic lesions in the glandular surface were counted. When evaluating the test results, the number of ulcers per stomach or the ulcer-free animals were determined.

ulcer = test: Anti-ulcer activity in general (pharmacological tests); format: in vivo; conditions: compared with cimetidine
Source text: The pharmacological activity of the new compounds has been investigated by the following methods: […]

[6] = indomethacin 15 + 15 mg/kg p.o.
[7] = indomethacin 15 + 25 mg/kg p.o.
[8] = indomethacin 15 + 50 mg/kg p.o.
[9] = 10 mg/kg i.p., 15 min. prior to operation, n=5
[10] = 10 mg/kg s.c., 15 min prior to operation, n=5
[11] = 10 mg/kg, 15 min prior to operation, n=5
[12] = Aspirin 100 + 1.5 mg/kg p.o., n=10
[13] = Aspirin 100 + 3.0 mg/kg p.o., n=17
[14] = Aspirin 100 + 6.0 mg/kg p.o., n=17
[15] = Aspirin 100 + 12.0 mg/kg p.o., n=14
[16] = Aspirin 100 + 25.0 mg/kg p.o., n=17

N#CN=C1SCCN1Cc1ccccc1 [Compound A, 3-Benzyl-2-cyanimino-thiazolidine]
Indomethacin-induced gastric ulcers, in words [1]: effectively inhibited | Cytoprotection ([2]; 1.5 mg/kg p.o.): 37% | Length of average lesion ([2]; 1.5 mg/kg p.o.): 52.5 ± 19 mm/stomach | Cytoprotection ([2]; 3.0 mg/kg p.o.): 58% | Length of average lesion ([2]; 3.0 mg/kg p.o.): 34.8 ± 10 mm/stomach | Cytoprotection ([2]; 6.0 mg/kg p.o.): 64% | Length of average lesion ([2]; 6.0 mg/kg p.o.): 29.9 ± 9 mm/stomach | Cytoprotection ([2]; 12.0 mg/kg p.o.): 60% | Length of average lesion ([2]; 12.0 mg/kg p.o.): 32.9 ± 5 mm/stomach | Cytoprotection ([2]; 25.0 mg/kg p.o.): 78% | Length of average lesion ([2]; 25.0 mg/kg p.o.): 18.0 ± 8 mm/stomach | ED50 ([2]; Rattus norvegicus, po, 30 minutes prior to ethanol): 2.8 mg/kg | Absolute alcohol-induced gastric necrosis, in words ([2]; rat, in vivo): effective against the gastric necrosis induced by absolute alochol; also recorded: effective also in the absolute alcohol necrosis test | ED100 ([3]; Rattus norvegicus, po, simultaneous with indomethacin 15 mg/kg, read-out: ED100): 50 mg/kg | Intestinal wall resistency in % of normal [3, 6]: 52 % of normal | T.s. of intestinal wall 72 hours after treatment [3, 6]: 120 ± 20 mm Hg | Intestinal wall resistency in % of normal [3, 7]: 83 % of normal | T.s. of intestinal wall 72 hours after treatment [3, 7]: 192 ± 18 mm Hg | Intestinal wall resistency in % of normal [3, 8]: 97 % of normal | T.s. of intestinal wall 72 hours after treatment [3, 8]: 225 ± 6 mm Hg | Indomethacin-induced intestinal ulceration, in words ([3]; simultaneous administration, indomethacin 15 mg/kg p.o.): dose-dependent inhibiting effect; also recorded: inhibits the indomethacin-induced intestinal ulceration | Solubility in water (Solubility in water): insoluble in water | Acid secretion (gastric acid secretion; 1.25 mg/kg i.p., n=5): 436 μmol HCl/100 g b.w. | Acid secretion (gastric acid secretion; 2.5 mg/kg i.p., n=10): 358 μmol HCl/100 g b.w. | Inhibition of acid secretion (gastric acid secretion; 2.5 mg/kg i.p., n=10): 17% | Acid secretion (gastric acid secretion; 5.0 mg/kg i.p., n=10): 301 μmol HCl/100 g b.w. | Inhibition of acid secretion (gastric acid secretion; 5.0 mg/kg i.p., n=10): 30% | Gastric acid secretion (volume) (gastric acid secretion; [9]): 2.5 ml/100 g, b.w. | Gastric acid secretion, pH (gastric acid secretion; [9]): 3.7 | Gastric acid secretion, vol. inhibition (gastric acid secretion; [9]): 42% | Inhibition of acid secretion (gastric acid secretion; 10.0 mg/kg i.p., n=20): 100% | Gastric acid secretion (volume) (gastric acid secretion; [10]): 2.8 ml/100 g, b.w. | Gastric acid secretion, pH (gastric acid secretion; [10]): 1.5 | Gastric acid secretion, vol. inhibition (gastric acid secretion; [10]): 35% | Gastric acid secretion (volume) (gastric acid secretion; [11]): 2.3 ml/100 g, b.w. | Gastric acid secretion, pH (gastric acid secretion; [11]): 4.1 | Gastric acid secretion, vol. inhibition (gastric acid secretion; [11]): 47% | Inhibition of acid secretion (gastric acid secretion; 25.0 mg/kg i.p., n=5): 100% | ED50 (gastric acid secretion; Rattus norvegicus, ip, 4 h, i.p., Shay rats, read-out: ED50, gastric acid secretion inhibition): 5.3 mg/kg | Gastric acid secretion decreasing effect, in words (gastric acid secretion; Table 1, i.p.): dose-dependent gastric acid secretion decreasing effect | Gastric acid secretion inhibition on oral administration, in words (gastric acid secretion; administered orally): effectively inhibits the gastric acid secretion also when administered orally | Oral absorption (gastric acid secretion; comparison of i.p., s.c. and p.o. data): good oral absorption | Sickness / death (Toxicological studies; 100 mg/kg, route not given, within 3 days): sickness of the test animals but no death occurs | Death (Toxicological studies; 250 mg/kg, within 2 weeks): no death is observed | Time to death of the animals (Toxicological studies; 1500 mg/kg i.p.): ≤ 30 min | Behavior and food consumption of animals (Toxicological studies; 1500 mg/kg oral): normal | Further deaths (Toxicological studies; 1500 mg/kg oral, in the next week): no further deaths are observed | Death of animals within 24 hours (Toxicological studies; 1500 mg/kg oral, within 24 hours): 3 animals out of 10 | Therapeutic index (Toxicological studies; first toxicological studies): high therapeutic index | T.s. of intestinal wall 72 hours after indomethacin treatment ([4]; 7.5 + 3 × 25 mg/kg p.o., 4, 24, 48 hours after indomethacin): 176 ± 20 mm Hg | T.s. of intestinal wall 72 hours after indomethacin treatment ([4]; 7.5 + 3 × 50 mg/kg p.o., 4, 24, 48 hours after indomethacin): 249 ± 4 mm Hg | Non-fatal intestinal ulceration post-treatment, in words ([4]; post-treatment 4, 24 and 48 hours after indomethacin 7.5 mg/kg p.o.): can normalize the tensile strength of the intestine wall | Number of ulcers/stomach [5, 12]: 9.5 | Ulcer inhibition [5, 12]: 40% | Ulcer-free animals [5, 12]: 0% | Number of ulcers/stomach [5, 13]: 6.8 | Ulcer inhibition [5, 13]: 57% | Ulcer-free animals [5, 13]: 23% | Number of ulcers/stomach [5, 14]: 4.7 | Ulcer inhibition [5, 14]: 71% | Ulcer-free animals [5, 14]: 29% | Number of ulcers/stomach [5, 15]: 2.2 | Ulcer inhibition [5, 15]: 86% | Ulcer-free animals [5, 15]: 66% | Number of ulcers/stomach [5, 16]: 2.3 | Ulcer inhibition [5, 16]: 85% | Ulcer-free animals [5, 16]: 41% | ED50 ([5]; Rattus norvegicus, po, 4 h, simultaneous administration): 2.1 mg/kg | Aspirin-induced gastric ulceration, in words ([5]; simultaneous administration, depending on the dose): inhibits the formation of the aspirin-induced gastric ulceration | Spectrum of activity, in words (ulcer): wider spectrum of activity than for example cimetidine
